The text below walks through data of patent publication US9957214B2, “Multifunctional radical quenchers” (ARIZONA BOARD OF REGENTS ON BEHALF OF ARIZONA STATE …, priority 2012, dated 2018).

For one data set, the system named is CEM leukemia cells. The data set can be described thus: Suppression of ROS production (DCFH-DA flow cytometry) in DEM-treated CEM leukemia cells. Type of data set: cell-based. The conditions noted are these: 5 μM; CEM leukemia cells pretreated with DEM. As to the method: FIG. 1. Flow cytometric analysis of CEM leukemia lymphocytes (gray bars) and FRDA lymphocytes (black bars) stained with dichlorodihydrofluorescein diacetate (DCFH-DA) for 20 min, following pretreatment with the test compounds at 5 μM concentration for 16 h, and subsequent treatment with diethyl maleate (DEM) for 60 or 80 min to induce the production of ROS in CEM and FRDA lymphocytes, respectively. Data shown represent the mean±SEM of two different experiments run as duplicates.
Intracellular ROS production was measured in FRDA lymphocyte cells (GM15850, Coriell Cell Repositories, Camden, N.J.) using the oxidant sensitive fluorescent probe 2,7-dichlorodihydrofluorescein diacetate (DCFH-DA) (Molecular Probes) as described previously (Khdour et al. (2011) Pharm. Res. 28, 2896-2909). One mL of FRDA lymphocyte cells or leukemic CEM cells (5×10^5 cells) were plated in a 24-well plate, treated with the test compounds and incubated at 37° C. for 16 h in a humidified atmosphere containing 5% CO2 in air. Cells were treated with 5 mM diethyl maleate (DEM) for 80 min or 60 min respectively, collected by centrifugation at 300×g for 3 min and then washed with phosphate buffered saline (PBS) (Life Technologies). Cells were resuspended in PBS containing 20 mM glucose and incubated at 37° C. in the dark for […] with 10 μM DCFH-DA. Cells were collected by centrifugation at 300×g for 3 min and then washed with PBS. The samples were analyzed immediately by flow cytometry (C6 Accuri, BD Biosciences, San Jose, Calif.), using a 488 nm excitation laser and the FL1-H channel 530±15 nm emission filter. The generation of ROS, mainly peroxides, was detected as a result of the oxidation of DCFH. In each analysis, 10,000 events were recorded after cell debris was electronically gated out. Results obtained were verified by running duplicates and repeating experiments in three independent runs. Results were expressed as percentage of ROS scavenging activity.
The ability of the synthesized analogues to quench ROS and lipid peroxidation was evaluated in FRDA lymphocytes or leukemic CEM cells. These cells were placed under oxidative stress by depleting them of glutathione (GSH) using diethyl maleate (DEM). Depletion of glutathione by treatment FRDA lymphocytes or leukemic CEM cells with DEM has been used to induce oxidative stress in cellular systems by generation of ROS. Intracellular ROS production was measured using the oxidant sensitive fluorescent probe 2,7-dichlorodihydrofluorescein diacetate (DCFH-DA) (Molecular Probes).
For orientation: Flow cytometry measures light scatter and fluorescence of single cells or particles in a stream.

The next data set has as its system FRDA lymphocytes. The data set can be described thus: Suppression of lipid peroxidation (C11-BODIPY581/591, FACS) in FRDA lymphocytes treated with diethyl maleate. In kind it is cell-based. The conditions noted are these: DEM. The text has this: Several methods for assaying lipid peroxidation in vitro have been developed (Kuypers et al. (1987) Biochim Biophys Acta. 25, 266-274; Pap et al. (1999) FEBS Lett. 453, 278-282; Drummen et al. (2002) Free RadicBiol Med. 33, 473-490). Almost all of these methods are based on inhibition of free radical-induced oxidation reactions. A widely used fluorescence assay for lipid peroxidation uses lipid soluble cis-parinaric acid as a probe. cis-parinaric acid loses its fluorescence (λexc/em: 320/432 nm) upon interaction with peroxyl radicals and retains its fluorescence in the presence of radical quenchers. cis-parinaric acid is, however, air sensitive, photolabile and absorbs light in the UV region of the spectrum (at ˜320 nm). […] In practical terms, the results obtained using cis-parinaric as a probe for lipid peroxidation are confounded due to the overlapping of the compounds emission spectra with the cis-parinaric emission spectrum. C11-BODIPY^581/591 Oxidation to Measure Lipid Peroxidation To overcome the problem of spectral overlap using cis-parinaric acid, a fluorescence assay for lipid peroxidation using a lipophilic probe belonging to the BODIPY class of fluorescent dyes was used C11-BODIPY^581/591 (4,4-difluoro-5(4-phenyl-1,3-butadienyl)-4-bora-3a, 4a-diaza-s-indacene-3-propionic acid) fluorescent shifts from red to green upon oxidation. C11-BODIPY^581/591 (Molecular Probes, Eugene, Oreg., USA) stock solution concentrations were determined by measuring the absorption of C11-BODIPY^581/591 at 582 nm using a molar extinction coefficient of 140,000 mol^−1 cm^−1 (R. P. Haugland, (1999) Handbook of Fluorescent Probes and Research Chemicals, Molecular Probes, Inc., Eugene, Oreg.). The lipid peroxidation inducer 2,2′-Azobis (2-amidino-propane dihydrochloride) (AAPH) and the antioxidant compound α-tocopherol (α-TOH) were obtained from Sigma (St. Louis, Mo., USA). Phospholipid bilayers were prepared from 1-stearoyl-2-oleoyl-phosphatidylcholine (SOPC) and 1,2-dilinoleoyl-phosphatidylcholine (DLPC) and were purchased from Avanti® polar lipids, Inc., (Alabaster, Ala., USA). Preparation of Liposomes Phosphotidylcholine (PC) liposomes were prepared as described before (Guey-Shuang et al. (1982) Lipids. 17, 403-413). Briefly, DLPC (25 mg) were dissolved in chloroform and the solvent was removed by nitrogen evaporation (˜2 hours) to give a thin film of PC in a round bottom flask. The lipid film was hydrated with 50 mL of 10 mM Tris-HCl (pH 7.4), 100 mM KCl, shaken and sonicated for 15 seconds. The liposomes obtained were filtered several times through […] membrane filter. Measurement of C11-BODIPY^581/591 Oxidation C11-BODIPY^581/591 was incorporated into liposomes and oxidized by peroxyl radicals derived from the decomposition of AAPH in the presence and absence of compounds. Liposomes (1 mg/mL), suspended in 10 mM Tris-HCl (pH 7.4), 100 mM KCl, were transferred to a quartz 1 mL cuvette and placed in a Varian Cary Eclipse fluorometer (Varian, Cary, N.C.) equipped with a thermostatted cuvette holder at 40° C. Liposomes were pre-incubated for 10 min with 200 nM C11-BODIPY^581/591 to allow their incorporation into the lipid phase of the liposomes. After the addition of AAPH (10 mM) the decay of the red fluorescence was followed at λ exc=570 nm, λ em=600 nm. Relative fluorescence units were normalized to 100% intensity. Results obtained were verified by repeating experiments N=3 independent experiments. Measurement of C11-BODIPY^581/591 Oxidation in Cell Culture A quantitative FACS analysis of lipid peroxidation of FRDA lymphocytes, which had been treated with diethyl maleate following incubation in the presence and absence of the test compounds, was measured as described (Khdour et al. (2011) Pharmaceut. Res. 28, 2896-2909). Briefly, FRDA lymphocytes (5×10^5 cell/mL) were treated with the test compounds at final concentrations of 5 and 10 μM and incubated at 37° C. for 16 h in a humidified atmosphere containing 5% CO2 in air. […]

Data set [1] concerns Friedreich's ataxia lymphoblast cell line GM15850. Nature of the data set: Cytoprotection (trypan blue exclusion assay) of DEM-treated FRDA lymphocytes. The conditions noted are these: DEM alone 18 ± 10% viability. Type of data set: cell-based. As to the method:
Cell viability was determined by trypan blue exclusion assay in Friedreich's ataxia lymphoblast cell line GM15850 (Coriell Institute, New Jersey). This technique was used to assess the cytoprotective effects of the tested compounds in cultured cells treated with DEM to induce cell death by GSH depletion. The viability of DEM-treated FRDA cells was determined by their ability to exclude the dye trypan blue. Viable cells exclude trypan blue, whereas non-viable cells take up the dye and stain blue. Briefly, FRDA lymphocytes were grown in RPMI 1640 medium (Gibco) supplemented with 15% fetal calf serum, 2 mM glutamine (HyClone) and 1% penicillin-streptomycin mix (Cellgro). Cells were seeded at a density of 5×10^5 cells/mL and treated with different concentrations of the indicated compounds. Cells were incubated at 37° C. in a humidified atmosphere of 5% CO2 in air for 17 h. After pre-incubation, the cells were treated with 5 mM DEM. Cell viability was determined by staining cells with 0.4% trypan blue using a hemacytometer. At least 500 cells were counted in each experimental group. At the time of assay, <20% of DEM treated cells were viable (trypan blue negative), whereas in non DEM-treated control, >90% cells were viable. Cell viability was expressed as the percentage of control. Data are expressed as means±S.E.M. (n=3).
Cell viability was determined by trypan blue exclusion assay in Friedreich's ataxia lymphoblast cell line GM15850 (Coriell Institute). This technique was used to assess the cytoprotective effects of the compounds in cultured cells treated with diethyl maleate (DEM) to induce cell death by glutathione (GSH) depletion. The viability of DEM-treated FRDA cells was determined by their ability to exclude the dye trypan blue. Viable cells exclude trypan blue, whereas non-viable cells take up the dye and stain blue. […] Benzoquinone analogue 9 afforded greater cyoprotection to FRDA lymphocytes at 5 μM concentration than did the tert-butyl ester 6 (74 vs 50%).

In data set [2] the test system is NADH oxidase (complexes I, III and IV). The data set can be described thus: NADH oxidase activity (complexes I, III and IV) in submitochondrial particles. In kind it is biochemical, bovine.

As to `CCCCCCCCCCCCCC1=C(NCCCC(=O)OC(C)(C)C)C(=O)C(C)=C(NCCCC(=O)OC(C)(C)C)C1=O` [Compound 44, 2,5-bis(tert-butyl 4-aminobutanoate)-3-methyl-6-tridecylcyclohexa-2,5-diene-1,4-dione], the “Scavenging activity (%), suppression of ROS production” value with CEM leukemia cells stood at 0%. The “Scavenging activity (%), suppression of lipid peroxidation” value in the data set with FRDA lymphocytes (5 μM) is 8 ± 3%; in the data set with FRDA lymphocytes (10 μM), 13 ± 3^ %. Moreover, the “Cytoprotection (cell viability, % of untreated control)” value in data set [1] (1 μM) is 15 ± 2%; in data set [1] (5 μM), 98 ± 6^ %. For the same compound, the “NADH oxidase activity (Complex I, III, IV) %” value is recorded as 95 ± 2^ % in data set [2] (1 μM), 92 ± 3^ % in data set [2] (5 μM) and 84 ± 3% in data set [2] (10 μM).

Take `CCCCCCCCCCCCCC1=C(NCCCC(=O)OCCCC)C(=O)C(C)=C(NCCCC(=O)OCCCC)C1=O` [Compound 47, 2,5-bis(butyl 4-aminobutanoate)-3-methyl-6-tridecylcyclohexa-2,5-diene-1,4-dione]: the “Scavenging activity (%), suppression of ROS production” value in the data set on CEM leukemia cells was 25 ± 11%. The “Scavenging activity (%), suppression of lipid peroxidation” value in the data set with FRDA lymphocytes (5 μM) is 7 ± 1%; in the data set with FRDA lymphocytes (10 μM), 19 ± 2^ %. Besides, the “Cytoprotection (cell viability, % of untreated control)” value is 9 ± 2% in data set [1] (1 μM) and 17 ± 3^ % in data set [1] (5 μM). The “NADH oxidase activity (Complex I, III, IV) %” value is on record as 77 ± 1^ % in data set [2] (1 μM), 68 ± 1^ % in data set [2] (5 μM) and 69 ± 2% in data set [2] (10 μM).
